Calls of active or inactive are those of the source. The rule behind the calls is not given here.
Legend:
[1] = target: T1, Olfactory receptor 5K1 (Homo sapiens) (UniProt Q8NHB7); experiment: Antagonist activity at human OR5K1 expressed in HEK293 cells assessed as inhibition of 2,6-dimethylpyrazine-induced response at 100 uM by luciferase reporter gene assay; type: functional, cell-based
T1 sequence (whole entry): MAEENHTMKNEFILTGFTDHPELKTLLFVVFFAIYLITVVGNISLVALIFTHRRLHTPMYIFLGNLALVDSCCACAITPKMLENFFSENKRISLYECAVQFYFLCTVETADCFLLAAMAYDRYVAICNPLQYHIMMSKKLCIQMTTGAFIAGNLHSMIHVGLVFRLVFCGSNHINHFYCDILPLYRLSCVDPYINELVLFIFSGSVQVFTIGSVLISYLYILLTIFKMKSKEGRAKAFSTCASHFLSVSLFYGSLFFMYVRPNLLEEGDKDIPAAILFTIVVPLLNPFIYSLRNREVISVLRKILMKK

[2] = organism: Homo sapiens; experiment: Inhibition of 2,6-dimethylpyrazine-induced odor assessed as strength of odor on cloth smelled by subjects; type: functional, organism-based

SMILES	inhibition [1]	inhibition [2]
CC1C/C=C/CCCCCCCCCC(=O)C1 (configuration not stated)	> 50%	Active
CC1(C)CCCC2(C)C1CCC1(C)OCCC12 (configuration not stated)	> 50%	
CC1=CCC(C(C)CC2CCCC2=O)CC1 (configuration not stated)	> 50%	
CC(=O)/C(C)=C/C1C(C)=CCCC1(C)C (configuration not stated)	> 50%	Active
CC(=O)c1cc(C(C)(C)C)cc2c1CCC2(C)C	> 40%	
C[C@@H]1[C@@H]2C(=O)C[C@H]3[C@@H]2C(C)(C)CCC[C@]13C	> 75%	
O=C(OCCc1ccccc1)c1ccccc1O	> 75%	
CCCCCC1=C(C)CCC1=O	> 40%	
CC(C)CCCC(C)CCO (configuration not stated)	> 50%	
C=C(OCC)C1C(C)(C)CC(=O)CC1(C)C	> 50%	
CC(C=O)Cc1ccc(C(C)(C)C)cc1 (configuration not stated)	> 50%	Active
O=C/C=C/c1ccccc1	> 50%	
O=C1CCCCCCCCCCCC(=O)OCCO1	> 40%	
CC(=O)/C=C/C1=C(C)CCCC1(C)C	> 75%	Active
CC1=CC(C)C(C)C(C=O)C1 (configuration not stated)	> 40%	
OCCCCCCc1ccccc1	> 40%	
CC(C=O)C1CCCCC1 (configuration not stated)	> 50%	
CC(=O)C1=C(C)[C@@H]2C[C@@]3(C1)[C@H](C)CC[C@H]3C2(C)C	> 50%	
CC(=O)O[C@]1(C)CC[C@H]2C(C)(C)[C@@H]3C[C@@]21CC[C@H]3C	> 50%	
CC(C=O)c1ccccc1 (configuration not stated)	> 50%	
CC/C(=C\CC1CC=C(C)C1(C)C)CO (configuration not stated)	> 75%	
CO[C@]1(C)CC[C@H]2C(C)(C)[C@@H]3C[C@@]21CC[C@H]3C	> 50%	
CC(=O)C1(C)CC2=C(CCCC2(C)C)CC1C (configuration not stated)	> 75%	
C/C=C/C(=O)C1=C(C)C=CCC1(C)C	> 40%	Active
CC(C)[C@H]1CC[C@@H](CO)CC1	> 40%	
CC(=O)c1c(C)c([N+](=O)[O-])c(C(C)(C)C)c([N+](=O)[O-])c1C	> 40%	
CC(C=O)Cc1ccc2c(c1)OCO2 (configuration not stated)	> 40%	Active

SMILES	inhibition [1]	inhibition [2]
CC1=CC(O)CC(C)C2CC(=C(C)C)CC12 (configuration not stated)	> 75%	
O=C1CCCCC/C=C\CCCCCCCCO1	> 50%	
CC(C)=CCCC(C)CC=O (configuration not stated)	> 50%	
CC12CCC(C3(CCCC3)C1=O)C2(C)C (configuration not stated)	> 50%	
CC/C=C(\C)C(O)CCCCC (configuration not stated)	> 75%	Active
C[C@@H]1CCCCCCCCCCCCC(=O)C1	> 50%	
CCC(O)COC1CCCCC1C(C)(C)C (configuration not stated)	> 75%	Active
CCCCC/C(C=O)=C\c1ccccc1	> 75%	
CCCCCCCC1CCC(=O)O1 (configuration not stated)	> 50%	Active
CC1=CC(C)C(C=O)CC1 (configuration not stated)	> 40%	Active
C=CCc1ccc(O)c(OC)c1	> 40%	
CC(C)[C@@H]1CC[C@@H](C)C[C@H]1O	> 50%	
CC(=O)c1ccc2ccccc2c1	> 50%	Active
CC(C)=CCCC(C)CCOCC=O (configuration not stated)	> 40%	
CCCCCC/C(C=O)=C\c1ccccc1	> 50%	
CC(C=O)Cc1ccc(C(C)C)cc1 (configuration not stated)	> 75%	
O=C1CCCCCCCCCCCCCCO1	> 40%	
C=CCCC(=O)C1=CCCC(C)(C)C1	> 40%	Active
C/C=C/c1ccc(OCc2ccccc2)c(OC)c1	> 50%	
CC1=CCC(C/C=C(\C)CO)C1(C)C (configuration not stated)	> 50%	Active
CC(C)=CCC/C(C)=C/CO	> 40%	Active
CC(C)=CCC/C(C)=C/C=O	> 75%	
CCCCCCOC(=O)c1ccccc1O	> 40%	
CC(=O)c1cc2c(cc1C)C(C)(C)C(C)CC2(C)C (configuration not stated)	> 75%	
Cc1ccc(C(C)C)c(O)c1	> 75%	
CCOCOC1CCCCCCCCCCC1	> 50%	

From ChEMBL document CHEMBL3727343, “Agent for inhibiting odor of pyrazine derivatives” (2013)
